Our source for the IC50 values is patent US20230355647A1, “Marker for determining anti-cancer effects of mitochondrial oxidative phosphorylation pathway inhibitor” (NANJING SHIJIANG MEDICINE TECHNOLOGY CO., LTD, priority 2020, published 2023).

What all share (format): cell-based
One test relates to HCC1806. The test is described as follows: Cell viability (CellTiter-Glo), HCC1806. The settings on record: Homo sapiens; HCC1806 cell line, 3-4 days of culture. The method, then:
(§1) Cell viability was detected using the Promega CellTiter-Glo kit, the kit reflected cell viability by directly measuring intracellular ATP content. The inhibitory effect (IC50 value) of Gboxin, a mitochondrial oxidative phosphorylation pathway inhibitor, on different tumor cell lines was tested in the Example. The name, source, and culture condition of each tumor cell line were as follows:
Cell line HCC1806 (ATCC, No. CRL-2335) was cultured in 10% fetal bovine serum-containing RPMI1640 medium (+P/S).
The above tumor cells were cultured in the relevant medium (+P/S), and incubated for 3 h, then the gradient diluted Gboxin was added, and IC50 (50% inhibiting concentration) was measured after 3-4 days of culture.
Background: Cellular ATP, detected with luciferase, serves as a proxy for viable cell number.

Another test concerns 786-O. As to the kind of experiment: Cell viability (CellTiter-Glo), 786-O. The settings on record: Homo sapiens, 786-0; 786-O cell line, 3-4 days of culture. The method, then: as §1, with “follows: Cell line 786-O (ATCC, No. CRL-1932) was cultured in 10% fetal bovine serum-containing RPMI1640 medium (+P/S). […] Cell viability was detected using the Promega CellTiter-Glo kit, the kit reflected cell viability by directly measuring intracellular ATP content.” for “follows:”

In another test the test system is SW48. The test is described as follows: Cell viability (CellTiter-Glo), SW48. The settings on record: Homo sapiens; SW48 cell line, 3-4 days of culture. As for the experimental part:
as §1, with “follows: Cell line SW48 (ATCC, No. CCL-231) was cultured in 10% fetal bovine serum-containing Leibovitz's L-15 medium (+P/S). […] Cell viability was detected using the Promega CellTiter-Glo kit, the kit reflected cell viability by directly measuring intracellular ATP content.” for “follows:”

What is called IC50 is the concentration at which inhibition is half-maximal. Higher therefore signals weaker potency in that assay. As to `CCc1n(CC(=O)O[C@@H]2C[C@H](C)CC[C@H]2C(C)C)c2ccccc2[n+]1C.[Cl-]` [Gboxin], the IC50 in the test with HCC1806 is 3.18 µM; in the test on 786-O, above 30 µM; in the test on SW48, 1540 nM.
